Reference: patent US11214594B2, “Antimicrobial peptide having synergistic antibacterial effect with antibiotics on multidrug resistant bacteria, and use thereof” (priority 2016, dated 2022)
Like-named read-outs stand apart in the source and are kept apart here. Where a SMILES comes first, the peptide text is derived from it. [ ]: non-standard residue; d: D form.

Key:
MDRAB 12036 = format: cell-based, Acinetobacter baumannii
Procedure, shortened: (§1)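 MIC read-out = lowest peptide level with no bacterial proliferation. Strains diluted in MH medium to 2×10^6 CFU; peptide twofold serial dilutions in MH added 1:1 in microtiter wells.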

MDRAB 12035 [1] = experiment: microbe, parasite or virus in culture; format: cell-based, Acinetobacter baumannii
Procedure, shortened: as §1

A. baumannii = experiment: microbe, parasite or virus in culture; format: cell-based, Acinetobacter baumannii
Procedure, shortened: as §1

P. aeruginosa = experiment: microbe, parasite or virus in culture; format: cell-based, Pseudomonas aeruginosa
Procedure, shortened: as §1

S. typhimurium = experiment: microbe, parasite or virus in culture; format: cell-based, Salmonella typhimurium
Procedure, shortened: as §1

B. subtilis = experiment: microbe, parasite or virus in culture; format: cell-based, Bacillus subtilis
Procedure, shortened: as §1

MDRST 8007 = experiment: Minimal inhibitory concentration (MIC), single agent; format: cell-based, Salmonella typhimurium; details: agent alone
Procedure, shortened: as §1

S. epidermidis = experiment: microbe, parasite or virus in culture; format: cell-based, Staphylococcus epidermidis
Procedure, shortened: as §1

MDRPA 2003 = format: cell-based, Pseudomonas aeruginosa
Procedure, shortened: as §1

MDRPA 2002 = format: cell-based, Pseudomonas aeruginosa
Procedure, shortened: as §1

MDREC 1229 = format: cell-based, Escherichia coli
Procedure, shortened: (§2)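 Strains in MH medium at 2×10^6 CFU/ml were mixed with peptide diluted stepwise (2:1) from its MIC, then antibiotic dilutions in MH medium were added to give the antibiotic MIC. The reversed set-up, peptide titrated against fixed antibiotic, gave the peptide MIC.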

E. coli = format: cell-based, Escherichia coli; details: E. coli
Procedure, shortened: as §2

MDRAB 12035 [2] = experiment: MIC of antibiotic during combined treatment with antimicrobial peptide; format: cell-based, Acinetobacter baumannii
Procedure, shortened: as §2

[3] = peptide treatment concentration 1 μg/ml
[4] = peptide treatment concentration 2 μg/ml
[5] = peptide treatment concentration 4 μg/ml
[6] = peptide treatment concentration 6 μg/ml
[7] = peptide treatment concentration 8 μg/ml
[8] = peptide treatment concentration 16 μg/ml
[9] = peptide treatment concentration 32 μg/ml
[10] = peptide treatment concentration 64 μg/ml

CC[C@H](C)[C@H](NC(=O)[C@H](CCCCN)NC(=O)[C@H](Cc1c[nH]c2ccccc12)NC(=O)[C@@H](N)CCCNC(=N)N)C(=O)N[C@@H](Cc1ccccc1)C(=O)N[C@@H](CCCCN)C(=O)N[C@@H](CCCCN)C(=O)N[C@H](C(=O)N[C@H](CCCCN)C(=O)N[C@@H](CCCCN)C(=O)N[C@@H](CC(C)C)C(=O)N[C@@H](CC(C)C)C(=O)N[C@@H](Cc1c[nH]cn1)C(=O)N[C@@H](CCC(=O)O)C(=O)N[C@@H](C)C(=O)N[C@@H](CCCCN)C(=O)N[C@@H](CCCCN)C(=O)N[C@@H](Cc1c[nH]c2ccccc12)C(N)=O)[C@@H](C)CC [PapMA-20, RWK IFK KIk KLL HEA KKW-NH2] (H-RWKIFKKI[dK]KLLHEAKKW-NH2; N-terminus assumed)
128 µg/mL: Linezolid MIC during combined treatment with peptide (MDRAB 12035 [2]; [4])
0 µg/mL: Peptide MIC during treatment with antibiotic (MDREC 1229; erythromycin […] (Conc./MIC 1)) | Peptide MIC during treatment with antibiotic (MDREC 1229; linezolid 512 μg/ml (Conc./MIC 1)) | Peptide MIC (E. coli; with Erythromycin […] (Conc./MIC 1)) | Peptide MIC (E. coli; with Linezolid […] (Conc./MIC 1)) | Peptide MIC (E. coli; with Vancomycin 1024 μg/ml (Conc./MIC 1)) | Erythromycin MIC during combined treatment with peptide (MDRAB 12035 [2]; [8]) | Linezolid MIC during combined treatment with peptide (MDRAB 12035 [2]; [8]) | Vancomycin MIC during combined treatment with peptide (MDRAB 12035 [2]; [8]) | Erythromycin MIC during combined treatment with peptide (MDRAB 12035 [2]; [9]) | Linezolid MIC during combined treatment with peptide (MDRAB 12035 [2]; [9]) | Vancomycin MIC during combined treatment with peptide (MDRAB 12035 [2]; [9]) | Erythromycin MIC during combined treatment with peptide (MDRAB 12035 [2]; [10]) | Linezolid MIC during combined treatment with peptide (MDRAB 12035 [2]; [10]) | Vancomycin MIC during combined treatment with peptide (MDRAB 12035 [2]; [10])
2 µg/mL: Peptide MIC during treatment with antibiotic (MDREC 1229; erythromycin 32 μg/ml (Conc./MIC 1/8)) | Peptide MIC during treatment with antibiotic (MDREC 1229; erythromycin 64 μg/ml (Conc./MIC 1/4)) | Peptide MIC during treatment with antibiotic (MDREC 1229; linezolid 64 μg/ml (Conc./MIC 1/8)) | Peptide MIC during treatment with antibiotic (MDREC 1229; linezolid […] (Conc./MIC 1/4)) | Peptide MIC during treatment with antibiotic (MDREC 1229; vancomycin 512 μg/ml (Conc./MIC 1/2))
8 µg/mL: Erythromycin MIC during combined treatment with peptide (MDRAB 12035 [2]; [5])
32 µg/mL: Minimal inhibitory concentration MIC (S. typhimurium) | Erythromycin MIC during combined treatment with peptide (MDRAB 12035 [2]; [3]) | Linezolid MIC during combined treatment with peptide (MDRAB 12035 [2]; [5])
64 µg/mL: Minimal inhibitory concentration MIC (P. aeruginosa) | Minimal inhibitory concentration MIC (MDRST 8007) | Minimal inhibitory concentration MIC (MDRPA 2003) | Minimal inhibitory concentration MIC (MDRPA 2002) | Vancomycin MIC during combined treatment with peptide (MDRAB 12035 [2]; [5])
16 µg/mL: Minimal inhibitory concentration MIC (MDRAB 12036) | Minimal inhibitory concentration MIC (MDRAB 12035 [1]) | Peptide MIC, peptide alone (MDRAB 12035 [1]) | Minimal inhibitory concentration MIC (A. baumannii) | Peptide MIC, peptide alone (A. baumannii) | Erythromycin MIC during combined treatment with peptide (MDRAB 12035 [2]; [4]) | Linezolid MIC during combined treatment with peptide (MDRAB 12035 [2]; [6]) | Vancomycin MIC during combined treatment with peptide (MDRAB 12035 [2]; [6])
1 µg/mL: Peptide MIC during treatment with antibiotic (MDREC 1229; erythromycin […] (Conc./MIC 1/2)) | Peptide MIC during treatment with antibiotic (MDREC 1229; linezolid […] (Conc./MIC 1/2)) | Peptide MIC during treatment with antibiotic (MDREC 1229; vancomycin 1024 μg/ml (Conc./MIC 1))
>128 µg/mL: Minimal inhibitory concentration MIC (B. subtilis) | Minimal inhibitory concentration MIC (S. epidermidis) | Linezolid MIC during combined treatment with peptide (MDRAB 12035 [2]; [3]) | Vancomycin MIC during combined treatment with peptide (MDRAB 12035 [2]; [3]) | Vancomycin MIC during combined treatment with peptide (MDRAB 12035 [2]; [4])
at least twice as high: Antibacterial activity relative to PapMA-1 (A. baumannii; A. baumannii and S. typhimurium)
0.5 µg/mL: Erythromycin MIC during combined treatment with peptide (MDRAB 12035 [2]; [7])
4 µg/mL: Peptide MIC during treatment with antibiotic (MDREC 1229; vancomycin […] (Conc./MIC 1/4)) | Peptide MIC during treatment with antibiotic (MDREC 1229; vancomycin […] (Conc./MIC 1/8)) | Erythromycin MIC during combined treatment with peptide (MDRAB 12035 [2]; [6]) | Linezolid MIC during combined treatment with peptide (MDRAB 12035 [2]; [7]) | Vancomycin MIC during combined treatment with peptide (MDRAB 12035 [2]; [7])
